From patent US7214689B2, “Isoquinoline compounds” (Les Laboratoires Servier, priority 2003, dated 2007)
Structures can show the parent of a compound that is named as a salt.

Key:
[1] = target: MT1 receptor (Homo sapiens, UniProt P48039); assay: Binding to melatonin receptor MT1 (2-[125I]-iodomelatonin); details: 2-[125I]-iodomelatonin radioligand, triplicate
Experimental: (§1) Study of Binding to Melatonin Receptors MT1 and MT2
(§2) The MT1 or MT2 receptor binding experiments are carried out using 2-[^125I]-iodomelatonin as reference radioligand. The radioactivity retained is determined using a liquid scintillation counter.
(§3) Competitive binding experiments are then carried out in triplicate using the various test compounds. A range of different concentrations is tested for each compound. The results enable the binding affinities (Ki) of the compounds tested to be determined.

[2] = target: T1, MT2 receptor (Homo sapiens, UniProt P49286); assay: Binding to melatonin receptor MT2 (2-[125I]-iodomelatonin); details: 2-[125I]-iodomelatonin radioligand, triplicate
T1 sequence (P49286 1-362): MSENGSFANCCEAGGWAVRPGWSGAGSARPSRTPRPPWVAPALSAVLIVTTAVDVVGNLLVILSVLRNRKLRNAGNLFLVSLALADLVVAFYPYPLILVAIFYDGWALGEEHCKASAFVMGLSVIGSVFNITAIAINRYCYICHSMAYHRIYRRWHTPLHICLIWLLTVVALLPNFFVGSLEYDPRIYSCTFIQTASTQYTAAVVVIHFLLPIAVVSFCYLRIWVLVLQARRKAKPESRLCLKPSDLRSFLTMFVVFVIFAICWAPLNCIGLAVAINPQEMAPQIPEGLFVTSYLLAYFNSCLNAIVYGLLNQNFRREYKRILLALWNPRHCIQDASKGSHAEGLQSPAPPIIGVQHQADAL
Experimental: as §1, §2, §3

[3] = Forced swimming test; format: in vivo; details: 40 minutes before the test
Experimental: The compounds of the invention are tested in a behavioural model, the forced swimming test.
The apparatus is a Plexiglas cylinder filled with water. The animals are tested individually for a session of 6 minutes. At the beginning of each test, the animal is placed in the centre of the cylinder. The period of immobility is recorded. Each animal is judged to be immobile when it ceases to struggle and remains immobile on the surface of the water only making movements that allow it to keep its head out of the water.
In particular, the compound of Example 9, administered at 2.5 mg/kg per os, causes the duration of immobility to be reduced from 102 seconds (control) to 57 seconds. The compound of Example 3, administered at 25 mg/kg per os, causes the duration of immobilisation to be reduced from 129 seconds (control) to 60 seconds.

Sequence of MT1 receptor (P48039 whole entry): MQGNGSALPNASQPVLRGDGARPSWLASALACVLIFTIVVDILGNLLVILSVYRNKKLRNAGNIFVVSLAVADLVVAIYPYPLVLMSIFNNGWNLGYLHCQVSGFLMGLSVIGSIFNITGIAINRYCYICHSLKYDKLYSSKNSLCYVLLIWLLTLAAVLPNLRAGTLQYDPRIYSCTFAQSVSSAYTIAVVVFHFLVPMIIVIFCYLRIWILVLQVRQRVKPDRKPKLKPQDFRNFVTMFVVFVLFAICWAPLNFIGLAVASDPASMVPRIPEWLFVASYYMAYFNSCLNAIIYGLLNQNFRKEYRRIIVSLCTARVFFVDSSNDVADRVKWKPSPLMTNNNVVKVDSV

Row | Structure (SMILES) | Ki [1] | Ki [2] | duration of immobility ([3]; 2.5 mg/kg per os, control 102 seconds) | duration of immobilisation ([3]; 25 mg/kg per os, control 129 seconds)
1 | CCC(=O)NCCc1cncc2ccc(OC)cc12 [Example 10, N-[2-(6methoxy-4-isoquinolinyl)ethyl]propanamide hydrochloride] | 4.26 nM | 1.14 nM |  | 
2 | COc1ccc2cncc(CCNC(C)=O)c2c1.Cl [Example 9, N-[2-(6-methoxy-4-isoquinolinyl)ethyl]acetamide hydrochloride] | 9.12 nM | 2.16 nM | 57 s | 
3 | CNC(=O)CCCc1cncc2ccc(OC)cc12 [Example 3, 4-(6-methoxy-4-isoquinolinyl)-N-methylbutanamide] | 3.8 nM | 2.6 nM |  | 60 s
